Test results as given in US10227323B2, “Glucosylceramide synthase inhibitors for the treatment of diseases” (BIOMARIN PHARMACEUTICAL INC., priority 2013, dated 2019).

Target: T1, GCS (Canis lupus familiaris, UniProt A0A8I3MXG6)
T1 sequence (A0A8I3MXG6 1-394): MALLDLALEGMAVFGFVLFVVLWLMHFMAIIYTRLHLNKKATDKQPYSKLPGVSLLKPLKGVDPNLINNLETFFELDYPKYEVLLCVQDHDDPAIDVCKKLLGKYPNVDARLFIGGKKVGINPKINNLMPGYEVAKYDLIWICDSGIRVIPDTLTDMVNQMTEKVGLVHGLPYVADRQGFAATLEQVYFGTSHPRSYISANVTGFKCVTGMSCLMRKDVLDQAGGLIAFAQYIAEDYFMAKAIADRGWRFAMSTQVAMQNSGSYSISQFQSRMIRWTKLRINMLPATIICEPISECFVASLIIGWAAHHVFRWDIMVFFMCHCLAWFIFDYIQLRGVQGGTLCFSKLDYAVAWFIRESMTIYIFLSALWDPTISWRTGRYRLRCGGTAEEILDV
Test: Assay 1: GCS Enzymatic Assay (MDCK cell lysate, C6-NBD-Ceramide, LC/MS)
Format: biochemical, canine
Conditions: Table 2; data without asterisk; read-out: IC50 (nM) generated from Assay 1
In short: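 LC/MS/MS measurement of glucosylceramide and NBD-ceramide after a 1 h, 37 °C reaction with 100 μM UDP-glucose and 10 μM C6-NBD-ceramide gave IC50s or percent inhibition.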

IC50	SMILES
< 50 nM	O=C(N[C@H](CN1CCCC1)[C@H](O)c1cc(F)c2c(c1)OCCO2)C(=O)c1ccc(N2CCOCC2)cc1 [Example 325, N-((1R,2R)-1-(8-fluoro-2,3-dihydrobenzo[b][1,4]dioxin-6-yl)-1-hydroxy-3-(pyrrolidin-1-yl)propan-2-yl)-2-(4-morpholinophenyl)-2-oxoacetamide]
50 to 5000 nM	O=C(N[C@@H](Cc1ccc(OC2CC2)c(Cl)c1)CN1CCCC1)C(=O)c1ccc(-c2ccc(F)cc2)cc1 [Example 326, (S)-N-(1-(3-chloro-4-cyclopropoxyphenyl)-3-(pyrrolidin-1-yl)propan-2-yl)-2-(4′-fluoro-[1,1′-biphenyl]-4-yl)-2-oxoacetamide]
< 50 nM	O=C(N[C@H](CN1CCC1)[C@H](O)c1ccc(OC2CC2)c(Cl)c1)C(=O)c1ccc(N2CCCC2)cc1 [Example 327, N-((1R,2R)-3-(azetidin-1-yl)-1-(3-chloro-4-cyclopropoxyphenyl)-1-hydroxypropan-2-yl)-2-oxo-2-(4-(pyrrolidin-1-yl)phenyl)acetamide]
< 50 nM	O=C(N[C@H](CN1CCCC1)[C@H](O)c1ccc(OC2CC2)c(Cl)c1)C(F)(F)CCc1ccc2cc(Cl)ccc2c1 [Example 328, N-((1R,2R)-1-(3-chloro-4-cyclopropoxyphenyl)-1-hydroxy-3-(pyrrolidin-1-yl)propan-2-yl)-4-(6-chloronaphthalen-2-yl)-2,2-difluorobutanamide]
< 50 nM	C=COc1ccc([C@@H](O)[C@@H](CN2CCCC2)NC(=O)C(=O)c2ccc(-c3ccc(F)cc3)cc2)cc1Cl [Example 329, N-((1R,2R)-1-(3-chloro-4-(vinyloxy)phenyl)-1-hydroxy-3-(pyrrolidin-1-yl)propan-2-yl)-2-(4′-fluoro-[1,1′-biphenyl]-4-yl)-2-oxoacetamide]
< 50 nM	CC(C)n1cc(-c2ccc(C(=O)C(=O)N[C@H](CN3CCCC3)[C@H](O)c3cc(F)c4c(c3)OCCO4)cc2)cn1 [Example 330, N-((1R,2R)-1-(8-fluoro-2,3-dihydrobenzo[b][1,4]dioxin-6-yl)-1-hydroxy-3-(pyrrolidin-1-yl)propan-2-yl)-2-(4-(1-isopropyl-1H-pyrazol-4-yl)phenyl)-2-oxoacetamide]
< 50 nM	CC(C)n1ccc2ccc(C(=O)C(=O)N[C@H](CN3CCCC3)[C@H](O)c3cc(F)c4c(c3)OCCO4)cc21 [Example 331, N-((1R,2R)-1-(8-fluoro-2,3-dihydrobenzo[b][1,4]dioxin-6-yl)-1-hydroxy-3-(pyrrolidin-1-yl)propan-2-yl)-2-(1-isopropyl-1H-indo1-6-yl)-2-oxoacetamide]
< 50 nM	CC(C)n1ccc2ccc(C(=O)C(=O)N[C@H](CN3CCCC3)[C@H](O)c3ccc(OC4CC4)c(Cl)c3)cc21 [Example 332, N-((1R,2R)-1-(3-chloro-4-cyclopropoxyphenyl)-1-hydroxy-3-(pyrrolidin-1-yl)propan-2-yl)-2-(1-isopropyl-1H-indo1-6-yl)-2-oxoacetamide]
< 50 nM	O=C(N[C@H](CN1CCCC1)[C@H](O)c1ccc(OC2CC2)cc1)C(=O)c1ccc(-c2ccc(F)cc2)cc1 [Example 333, N-((1R,2R)-1-(4-cyclopropoxyphenyl)-1-hydroxy-3-(pyrrolidin-1-yl)propan-2-yl)-2-(4′-fluoro-[1,1′-biphenyl]-4-yl)-2-oxoacetamide]
< 50 nM	Cc1nn(C(C)C)c2cc(-c3ccc(C(=O)C(=O)N[C@H](CN4CCCC4)[C@H](O)c4ccc(OC5CC5)c(Cl)c4)cc3)ccc12 [Example 334, N-((1R,2R)-1-(3-chloro-4-cyclopropoxyphenyl)-1-hydroxy-3-(pyrrolidin-1-yl)propan-2-yl)-2-(4-(1-isopropyl-3-methyl-1H-indazol-6-yl)phenyl)-2-oxoacetamide]
< 50 nM	Cc1c2ccc(-c3ccc(C(=O)C(=O)N[C@H](CN4CCCC4)[C@H](O)c4cc(F)c5c(c4)OCCO5)cc3)cc2nn1C(C)C [Example 335, N-((1R,2R)-1-(8-fluoro-2,3-dihydrobenzo[b][1,4]dioxin-6-yl)-1-hydroxy-3-(pyrrolidin-1-yl)propan-2-yl)-2-(4-(2-isopropyl-3-methyl-2H-indazol-6-yl)phenyl)-2-oxoacetamide]
< 50 nM	Cc1c2ccc(-c3ccc(C(=O)C(=O)N[C@H](CN4CCCC4)[C@H](O)c4ccc(OC5CC5)c(Cl)c4)cc3)cc2nn1C(C)C [Example 336, N-((1R,2R)-1-(3-chloro-4-cyclopropoxyphenyl)-1-hydroxy-3-(pyrrolidin-1-yl)propan-2-yl)-2-(4-(2-isopropyl-3-methyl-2H-indazol-6-yl)phenyl)-2-oxoacetamide]
< 50 nM	Cc1nn(C(C)C)c2cc(-c3ccc(C(=O)C(=O)N[C@H](CN4CCCC4)[C@H](O)c4cc(F)c5c(c4)OCCO5)cc3)ccc12 [Example 337, N-((1R,2R)-1-(8-fluoro-2,3-dihydrobenzo[b][1,4]dioxin-6-yl)-1-hydroxy-3-(pyrrolidin-1-yl)propan-2-yl)-2-(4-(1-isopropyl-3-methyl-1H-indazol-6-yl)phenyl)-2-oxoacetamide]
< 50 nM	O=C(N[C@H](CN1CCC1)[C@H](O)c1ccc(OC2CC2)c(Cl)c1)C(=O)c1cc2ccc(Cl)cc2s1 [Example 338, N-((1R,2R)-3-(azetidin-1-yl)-1-(3-chloro-4-cyclopropoxyphenyl)-1-hydroxypropan-2-yl)-2-(6-chlorobenzo[b]thiophen-2-yl)-2-oxoacetamide]
< 50 nM	CC(C)c1ccc(-c2ccc(C(=O)C(=O)N[C@H](CN3CCCC3)[C@H](O)c3ccc(OC4CC4)c(Cl)c3)cc2)cc1 [Example 339, N-((1R,2R)-1-(3-chloro-4-cyclopropoxyphenyl)-1-hydroxy-3-(pyrrolidin-1-yl)propan-2-yl)-2-(4′-isopropyl-[1,1′-biphenyl]-4-yl)-2-oxoacetamide]
< 50 nM	Cc1nn(C)c2cc(-c3ccc(C(=O)C(=O)N[C@H](CN4CCCC4)[C@H](O)c4ccc(OC5CC5)c(Cl)c4)cc3)ccc12 [Example 340, N-((1R,2R)-1-(3-chloro-4-cyclopropoxyphenyl)-1-hydroxy-3-(pyrrolidin-1-yl)propan-2-yl)-2-(4-(1,3-dimethyl-1H-indazol-6-yl)phenyl)-2-oxoacetamide]
< 50 nM	Cc1nn(C)c2cc(-c3ccc(C(=O)C(=O)N[C@H](CN4CCCC4)[C@H](O)c4cc(F)c5c(c4)OCCO5)cc3)ccc12 [Example 341, 2-(4-(1,3-dimethyl-1H-indazol-6-yl)phenyl)-N-((1R,2R)-1-(8-fluoro-2,3-dihydrobenzo[b][1,4]dioxin-6-yl)-1-hydroxy-3-(pyrrolidin-1-yl)propan-2-yl)-2-oxoacetamide]
< 50 nM	Cc1c2ccc(-c3ccc(C(=O)C(=O)N[C@H](CN4CCCC4)[C@H](O)c4cc(F)c5c(c4)OCCO5)cc3)cc2nn1C [Example 342, 2-(4-(2,3-dimethyl-2H-indazol-6-yl)phenyl)-N-((1R,2R)-1-(8-fluoro-2,3-dihydrobenzo[b][1,4]dioxin-6-yl)-1-hydroxy-3-(pyrrolidin-1-yl)propan-2-yl)-2-oxoacetamide]
< 50 nM	O=C(N[C@H](CN1CCCC1)[C@H](O)c1ccc(OC2CC2)c(Cl)c1)C(=O)c1ccc(N2CCCC2)cc1 [Example 343, N-((1R,2R)-1-(3-chloro-4-cyclopropoxyphenyl)-1-hydroxy-3-(pyrrolidin-1-yl)propan-2-yl)-2-oxo-2-(4-(pyrrolidin-1-yl)phenyl)acetamide]
< 50 nM	COc1cc([C@@H](O)[C@@H](CN2CCCC2)NC(=O)C(=O)c2ccc(-c3ccc(F)cc3)cc2)cc(F)c1OC(C)C [Example 344, N-((1R,2R)-1-(3-fluoro-4-isopropoxy-5-methoxyphenyl)-1-hydroxy-3-(pyrrolidin-1-yl)propan-2-yl)-2-(4′-fluoro-[1,1′-biphenyl]-4-yl)-2-oxoacetamide]
< 50 nM	CC(C)n1ccc2ccc(-c3ccc(C(=O)C(=O)N[C@H](CN4CCCC4)[C@H](O)c4cc(F)c5c(c4)OCCO5)cc3)cc21 [Example 345, N-((1R,2R)-1-(8-fluoro-2,3-dihydrobenzo[b][1,4]dioxin-6-yl)-1-hydroxy-3-(pyrrolidin-1-yl)propan-2-yl)-2-(4-(1-isopropyl-1H-indol-6-yl)phenyl)-2-oxoacetamide]
< 50 nM	CC(C)n1ccc2ccc(-c3ccc(C(=O)C(=O)N[C@H](CN4CCCC4)[C@H](O)c4ccc(OC5CC5)c(Cl)c4)cc3)cc21 [Example 346, N-((1R,2R)-1-(3-chloro-4-cyclopropoxyphenyl)-1-hydroxy-3-(pyrrolidin-1-yl)propan-2-yl)-2-(4-(1-isopropyl-1H-indo1-6-yl)phenyl)-2-oxoacetamide]
< 50 nM	Cc1c2ccc(-c3ccc(C(=O)C(=O)N[C@H](CN4CCCC4)[C@H](O)c4ccc(OC5CC5)c(Cl)c4)cc3)cc2nn1C [Example 347, N-((1R,2R)-1-(3-chloro-4-cyclopropoxyphenyl)-1-hydroxy-3-(pyrrolidin-1-yl)propan-2-yl)-2-(4-(2,3-dimethyl-2H-indazol-6-yl)phenyl)-2-oxoacetamide]
50 to 5000 nM	COc1cc([C@@H](O)[C@@H](CN2CCCC2)NC(=O)C(=O)c2cc3ccc(Cl)cc3s2)cc(F)c1OC(C)C [Example 348, 2-(6-chlorobenzo[b]thiophen-2-yl)-N-((1R,2R)-1-(3-fluoro-4-isopropoxy-5-methoxyphenyl)-1-hydroxy-3-(pyrrolidin-1-yl)propan-2-yl)-2-oxoacetamide]
